Earlier results in PMC5669518 (Biochemistry and Biophysics Reports, 2015).

Tested on: NEU2
Details: active form of oseltamivir; ref [16], [17]

In the case of CCOC(=O)C1=C[C@@H](OC(CC)CC)[C@H](NC(C)=O)[C@@H](N)C1 [oseltamivir], the “Inhibitory effect on NEU2” value is listed as “does not exhibit the inhibitory effect”.
